{
  "source": "paper PMC10666548",
  "about": "“Identification of the bacterial metabolite aerugine as potential trigger of human dopaminergic neurodegeneration” (Environment international, 2023)",
  "type_in_all_cases": "cell-based, human",
  "key": {"[1]": {"test_system": "mitochondrial respiration in LUHMES cells", "experiment": "Seahorse assessment of mitochondrial respiratory parameters", "details": "d3 LUHMES", "experimental": "The method was performed as described previously. ([Delp et al., 2018]) In brief, LUHMES cells were seeded on d2 into pre-coated Agilent Seahorse XFe24 well plates at a density of 100′000 cells/well in differentiation medium. On d3 the cells were analyzed in a Seahorse XF analyzer using the Mito stress test kit in accordance with the manufacturer’s instructions. In brief, 1 h prior to analysis the medium was changed to Seahorse XF base medium supplemented with 18 mM glucose, 2 mM glutamine and 1 mM pyruvate. The oxygen consumption rate (OCR) was measured to determine the basal respiration in untreated cells. After test compound injection the acute response was quantified. […] The addition of 0.5 μM rotenone and 0.5 μM antimycin A completely shut down mitochondrial respiration to quantify non-mitochondrial respiration. […] Image acquisition was performed using an Array-Scan VTI HCS Reader (Cellomics, PA, USA) equipped with a Hamamatsu ORCA-ER camera. […] Nuclei were identified and quantified depending on intensity, area, size and shape. According to pixel size and well size the total cell count was calculated and used for normalization of the OCR data. […]\nA The effect of aerugine on respiratory function was analysed in d3 LUHMES cells. […] C Delp et al. (2019) determined the dependence of LUHMES cells on glycolysis and their mitochondria for ATP production in two different media conditions. […]"}, "Hek293FT": {"test_system": "Hek293FT", "experiment": "Cell line viability, resazurin reduction, 72 h", "details": "at <100 μM", "experimental": "Hek293FT were acquired from ThermoFisher Scientific (cat. no. R70007). HepG2 were acquired from ATCC (HB-8065). HeLa were acquired from ATCC (CCL-2). The cell culture was performed as described previously ([Dolde et al., 2021]). Briefly, the cell lines were kept in DMEM Glutamax with 10% FCS and 1% penicillin/streptomycin at 37 °C with 5% CO2. They were grown in normal cell culture flasks (Sarstedt) to 75–90% confluence and seeded into standard 96-well plates 24 h prior to compound treatment. The cells were treated by performing a medium change to Advanced DMEM/F12 supplemented with 2 mM L-glutamine containing the indicated compound concentrations.\nThe assay was performed as described previously ([Schildknecht et al., 2009]). In brief, cells were stained with 10 μg/ml resazurin and incubated for 30 min at 37 °C and 5% CO2. The fluorescence of resazurin was detected with an excitation wavelength of 530 nm, using a 590 nm long-pass filter to record the emission.\nFig. 3. Cell type specificity of aerugine cytotoxicity. A Cultures of LUHMES neurons were used on d0 (proliferating, blue), d2 (immature, black) or d6 (mature, red) of differentiation for cytotoxicity testing. Cells were exposed to nine serial dilutions of synthetic aerugine. The cell viability was assessed 24 h later by calcein-AM & H-33342 staining and high content imaging. […] Dotted lines at 4 μM indicate the average EC50 for mature LUHMES. […] They were treated for 72 h with synthetic aerugine. The overall cell viability was assessed by measuring resazurin reduction in technical triplicates. Data are presented as means ± range of two biological replicates (different experiments). C Three iPSC-derived neuronal cell types were treated for 24 h with synthetic aerugine. The cell viability was assessed 24 h later by calcein-AM & H-33342 staining and high content imaging. Data are presented as means ± SEM of three biological replicates (different experiments). D Lack of cytotoxic or bacteriostatic effects of aerugine (20 μM) on exemplary gram-positive and gram-negative microbes: The growth characteristics of Enterococcus faecalis (gram-positive) and Neisseria gonorrhoeae MS11 (gram-negative) were followed during the log growth phase in their respective culture media. Data are from one biological replicate."}, "[2]": {"test_system": "Cortical neurons (Cortex.4U)", "experiment": "iPSC-derived neuron viability, calcein-AM & H-33342 imaging", "experimental": "(§1) Commercial preparation of iPSC-derived neurons (Cortex.4U and CNS.4U) were handled and used as described by the manufacturer (nCardia). In brief, plates were coated with 10 μg/ml PLO, 10 μg/ml laminin and 10 μg/ml fibronectin. Cells were thawed and immediately seeded onto 96-well plates in their respective culture media (Cortex.4U: Cortex.4U™ culture medium with Cortex.4U™ supplement; CNS.4U: Neuro.4U Basal Medium [Ax-M-NBM250] with Neuro-Supplement 2 [Ax-M-DCS-DA]) to be used in neurite outgrowth assays.\n(§2) The assays were performed as described previously ([Hoelting et al., 2016]; [Klima et al., 2021]; [Krug et al., 2013]). In brief, 30′000 cells per well were seeded on d2 (LUHMES) / d0 (peripheral neurons, Cortex.4U, CNS.4U) in their respective differentiation media into standard pre-coated 96-well plates. They were incubated for 1 h at 37 °C and 5% CO2 before treatment. 24 h after treatment the Calcein/Hoechst readout was performed.\n(§3) Neurite area (NA) and viability (V) were assessed as described previously ([Stiegler et al., 2011]). In brief, cells were stained with 1 μM calcein-AM and 1 μg/ml H-33342 for 30 min at 37 °C and 5% CO2. Image acquisition was performed using an Array-Scan VTI HCS Reader (Cellomics, PA, USA) equipped with a Hamamatsu ORCA-ER camera. 10 fields per well were imaged with 2 channels at 20x magnification (2×2 pixel binning). Excitation/emission wavelengths of 365 ± 50/535 ± 45 nm were used for Hoechst detection in channel 1 and 474 ± 40/535 ± 45 nm were used for calcein detection in channel 2."}, "[3]": {"test_system": "Mixed central nervous system neurons (CNS.4U)", "experiment": "iPSC-derived neuron viability, calcein-AM & H-33342 imaging", "details": "24 h, at higher concentrations than LUHMES", "experimental": "as §1, §2, §3"}},
  "note": "“Also recorded” adds a separate entry of the source.",
  "data": [
    {"smiles": "OCC1CSC(c2ccccc2O)=N1", "note": "(stereo not shown) [aerugine, 2-[4-(hydroxymethyl)-4,5-dihydro-1,3-thiazol-2-yl]phenol]", "values": [
      {"measurement": "functional respiratory parameters (e.g. basal respiration, ATP production)", "setting": "[1]", "value": "no significant difference was observed"},
      {"measurement": "oxygen consumption rate (OCR)", "setting": "[1]; various metabolic conditions", "value": "not different from control conditions; also recorded: No interaction"},
      {"measurement": "toxicity (overall cell viability, resazurin reduction)", "setting": "Hek293FT", "value": "no toxicity was observed"},
      {"measurement": "toxicity (overall cell viability, resazurin reduction)", "setting": "Hek293FT; listed as Aerugine", "value": "non-toxic"},
      {"measurement": "effect on cell viability", "setting": "[2]; 24 h", "value": "sensitive to aerugine"},
      {"measurement": "fold higher toxic concentration than for DA neurons (mature LUHMES)", "setting": "[2]; cortical neurons vs mature LUHMES", "value": "about 50 x"},
      {"measurement": "effect on cell viability", "setting": "[3]", "value": "clearly affected by aerugine"}
    ]}
  ]
}
